Results from patent US10717742B2, “Spiro[3H-indole-3,2′-pyrrolidin]-2(1H)-one compounds and derivatives as MDM2-P53 inhibitors” (Boehringer Ingelheim International GmbH, priority 2015, dated 2020).

Molecular target: p53-MDM2 interaction (GST-MDM2 protein aa 23-117 / biotinylated p53 wt peptide) (Homo sapiens (Human), UniProt Q00987)
Assay: Mdm2-p53 Inhibition AlphaScreen
Format: binding
Conditions: GST-MDM2 (aa 23-117) / biotinylated p53 wt peptide

p53-MDM2 interaction (GST-MDM2 protein aa 23-117 / biotinylated p53 wt peptide), sequence (Q00987 23-117): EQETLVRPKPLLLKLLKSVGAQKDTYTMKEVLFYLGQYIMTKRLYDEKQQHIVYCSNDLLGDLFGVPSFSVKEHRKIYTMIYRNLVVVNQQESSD

Structure (SMILES) | IC50 [nM]
CCOc1cccc(CN2[C@@H]3Cn4c(nc5cc(C(N)=O)ccc54)[C@@H]3[C@@H](c3cccc(Cl)c3F)[C@@]23C(=O)Nc2cc(Cl)ccc23)c1 [Ib-243] | 99
Nc1ccc2c(c1)nc1n2CC[C@H]2[C@@H]1[C@H](c1cccc(Cl)c1F)[C@]1(C(=O)Nc3cc(Cl)ccc31)N2CC1CC1 [Ib-247] | 27
O=C1Nc2cc(Cl)ccc2[C@@]12[C@@H](c1cccc(Cl)c1F)[C@@H]1c3nc4cc(N5CCCCC5)ccc4n3CC[C@@H]1N2CC1CC1 [Ib-249] | 240
O=C1Nc2cc(Cl)ccc2[C@@]12[C@@H](c1cccc(Cl)c1F)[C@@H]1c3nc4ccccc4n3CC[C@@H]1N2CC1CC1 [Ib-253] | 72

The remaining lines, values ahead:

IC50 [nM] | Structure (SMILES)
20 | O=C1Nc2cc(Cl)ccc2[C@@]12[C@@H](c1cccc(Cl)c1F)[C@@H]1c3nc4cc(CO)ccc4n3CC[C@@H]1N2CC1CC1 [Ib-245]
13 | CCOc1cccc(CN2[C@H]3Cc4c(nc5c(C)c(C(=O)O)ccn45)[C@H]3[C@H](c3ccnc(Cl)c3F)[C@]23C(=O)Nc2cc(Cl)ccc23)c1 [Ic-27]
10 | Cc1c(C(=O)N(C)C)ccn2c3c(nc12)[C@@H]1[C@H](C3)N(CC2CC2)[C@@]2(C(=O)Nc3cc(Cl)ccc32)[C@H]1c1ccnc(Cl)c1F [Ic-29]
10 | Cc1c(C(=O)N2CCCCC2)ccn2c3c(nc12)[C@@H]1[C@H](C3)N(CC2CC2)[C@@]2(C(=O)Nc3cc(Cl)ccc32)[C@H]1c1ccnc(Cl)c1F [Ic-35]
10 | Cc1c(C(=O)N2CCOCC2)ccn2c3c(nc12)[C@@H]1[C@H](C3)N(CC2CC2)[C@@]2(C(=O)Nc3cc(Cl)ccc32)[C@H]1c1ccnc(Cl)c1F [Ic-37]
6 | Cc1c(C(=O)O)ccn2c3c(nc12)[C@@H]1[C@H](C3)N(CC2CC2)[C@@]2(C(=O)Nc3cc(Cl)ccc32)[C@H]1c1ccnc(Cl)c1F [Ic-23]
4 | CCOc1cccc(CN2[C@H]3Cn4c(nc5cc(C(N)=O)ccc54)[C@H]3[C@H](c3cccc(Cl)c3F)[C@]23C(=O)Nc2cc(Cl)ccc23)c1 [Ib-241]
3 | CCOc1cccc(CN2[C@H]3Cn4c(nc5cc(C(=O)NO)ccc54)[C@H]3[C@H](c3cccc(Cl)c3F)[C@]23C(=O)Nc2cc(Cl)ccc23)c1 [Ib-244]
2 | CCOc1cccc(CN2[C@H]3Cn4c(nc5cc(C(N)=O)ccc54)[C@H]3[C@H](c3cccc(Cl)c3F)[C@]23C(=O)Nc2cc(Cl)ccc23)c1 [Ib-242]

System: p53 wild-type vs. p53 mutant cell lines
Assay: not given
Conditions: in vitro, PPTP of the NCI; cited from earlier work

Structure (SMILES) | cytotoxic activity, median IC50
CCOc1cc(C(C)(C)C)ccc1C1=N[C@@](C)(c2ccc(Cl)cc2)[C@@](C)(c2ccc(Cl)cc2)N1C(=O)N1CCN(CCCS(C)(=O)=O)CC1 [RG-7112] | lower median IC50 values for p53 wild-type vs. p53 mutant cell lines

System: solid tumor xenograft models
Assay: not given
Conditions: cited from earlier work

Structure (SMILES) | tumor growth inhibition
CCOc1cc(C(C)(C)C)ccc1C1=N[C@@](C)(c2ccc(Cl)cc2)[C@@](C)(c2ccc(Cl)cc2)N1C(=O)N1CCN(CCCS(C)(=O)=O)CC1 [RG-7112] | induced tumor growth inhibition

System: acute lymphoblastic leukemia (ALL) xenograft models with mixed-lineage leukemia (MLL) rearrangement
Assay: not given
Conditions: cited from earlier work

Structure (SMILES) | efficacy in xenograft models
CCOc1cc(C(C)(C)C)ccc1C1=N[C@@](C)(c2ccc(Cl)cc2)[C@@](C)(c2ccc(Cl)cc2)N1C(=O)N1CCN(CCCS(C)(=O)=O)CC1 [RG-7112] | particularly efficacious

System: human acute myeloid leukemia (AML) and human prostate tumor xenograft models harboring p53 wild-type
Assay: not given
Conditions: cited from earlier work

Structure (SMILES) | antiproliferative and proapoptotic activity
CCOc1cc(C(C)(C)C)ccc1C1=N[C@@](C)(c2ccc(Cl)cc2)[C@@](C)(c2ccc(Cl)cc2)N1C(=O)N1CCN(CCCS(C)(=O)=O)CC1 [RG7112] | antiproliferative and proapoptotic activity
